For assay [1], the system named is mononuclear cells from peripheral blood of a healthy subject (CD137+ T cells). As to the kind of experiment: T cell activation by EBV-LMP2A antigenic peptide stimulation, CD137 flow cytometry. Type of assay: cell-based, human. As to conditions: addition of CMA (0.3 to 3 μM per Example 1), two samples of PBMC from a healthy subject. As to the method:
Re-inoculate in a 24-well plate. Add 0.3 to 3 μM Concanamycin A to a medium and incubate at 37° C. and 5% CO2 for 2 hours. Add 10 μg/ml EBV LMP2A peptide and culture at 37° C. and 5% CO2 for 24 hours. Suspend 2×10^6 cells of peripheral blood mononuclear cells (PBMC) separated from peripheral blood of a healthy subject in a MEM-alpha medium added with 10% FBS, 200 U IL-2 and 20 μg/ml IL-15, and add 10 μg/ml EBV LMP2A peptide. Start culturing at 37° C. and 5% CO2. Replace the medium and divide the wells every 2 to 5 days according to amplification rate of the cells. Culture for 12 days. Collect the cells on day 12 and re-inoculate in a 24-well plate at 2×10^6 cells/well. Add 0.3 to 3 μM Concanamycin A to the medium and incubate at 37° C. and 5% CO2 for 2 hours. Then, add 10 μg/ml EBV LMP2A peptide and culture at 37° C. and 5% CO2 for 24 hours. After 24 hours, stain the cells with CD8-PerCP/Cy5.5 antibody and CD137-PE antibody, and analyze using a flow cytometer (BD FACS Aria II).
For orientation: Flow cytometry measures light scatter and fluorescence of single cells or particles in a stream.

Assay [2] relates to mononuclear cells from peripheral blood of a leukemia patient (CD137-expressing T cells). Briefly: T cell activation by WT1 antigenic peptide stimulation, CD137 expression. The assay is classed as cell-based, human. As to conditions: FIG. 3; medium added with 1 μM CMA; two samples of PBMC from a leukemia patient.

The values below come from patent US20210030796A1, “METHOD FOR PRODUCING ANTIGEN-SPECIFIC T CELLS” (Thyas Co. Ltd., priority 2019, published 2021).

Take `C/C=C/[C@H]1O[C@@](O)([C@@H](C)[C@H](O)[C@H](C)[C@H]2OC(=O)/C(OC)=C/C(C)=C/[C@@H](C)[C@@H](O)[C@@H](CC)[C@@H](O)[C@H](C)C/C(C)=C/C=C/[C@@H]2OC)C[C@@H](O[C@H]2C[C@@H](O)[C@H](OC(N)=O)[C@@H](C)O2)[C@@H]1C` [Concanamycin A]: the “percentage of CD137+ T cells activated with EBV-LMP2A peptide” value in assay [1] (FIG. 1) was “increased”. Further, the “number of CD137+ T cells activated with EBV-LMP2A peptide” value in assay [1] (FIG. 2) was “increased”. For the same compound, the “percentage of T cells activated (CD137-expressing) by WT1 peptide stimulation” value in assay [2] was “induced”.
